Where “and” joins values, the source holds several entries; their conditions need not be identical. Equal values may be shown once. Toxic doses and inconclusive results are not listed.
Tested on: BDF1 mice, L1210 leukemia sc, survival T/C
Assay: NCI In Vivo Anticancer Drug Screen. Data for tumor model L1210 Leukemia (subcutaneous) in B6D2F1 (BDF1) mice
Conditions: endpoint: median survival time, higher = longer survival
In short: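 Read-out: T/C ratio, i.e. survival or tumor size in treated mice over that in vehicle-treated controls, from mice bearing transplantable tumors.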

[1] = dose: 39.0 mg/kg/injection, schedule: Q01DX Z (sc), vehicle: methylcellulose (MC)
[2] = dose: 65.0 mg/kg/injection, schedule: Q01DX Z (sc), vehicle: methylcellulose (MC)
[3] = dose: 1.8 mg/kg/injection, schedule: Q01DX Z (sc), vehicle: saline
[4] = dose: 3.0 mg/kg/injection, schedule: Q01DX Z (sc), vehicle: saline
[5] = dose: 5.0 mg/kg/injection, schedule: Q01DX Z (sc), vehicle: saline
[6] = dose: 8.4 mg/kg/injection, schedule: Q01DX Z (sc), vehicle: saline

## NC(=S)N/N=C/c1ccc(O)cn1
dose: 8.4 mg/kg/injection, schedule: Q03HX024 (sc), vehicle: none
  T/C: 120 % of control
dose: 10.0 mg/kg/injection, schedule: Q03HX024 (sc), vehicle: other
  T/C: 155 % of control
dose: 20.0 mg/kg/injection, schedule: Q03HX024 (ip), vehicle: other
  T/C: 183 % of control
dose: 20.0 mg/kg/injection, schedule: Q03HX024 (sc), vehicle: other
  T/C: 177 % of control
dose: 23.0 mg/kg/injection, schedule: Q03HX024 (sc), vehicle: none
  T/C: 175 % of control
dose: 30.0 mg/kg/injection, schedule: Q03HX024 (ip), vehicle: other
  T/C: 238 % of control
dose: 30.0 mg/kg/injection, schedule: Q03HX024 (sc), vehicle: other
  T/C: 266 % of control
dose: 39.0 mg/kg/injection, schedule: Q03HX024 (sc), vehicle: none
  T/C: 165 % of control
dose: 50.0 mg/kg/injection, schedule: Q04DX003 (sc), vehicle: other
  T/C: 107 % of control and 110 % of control
dose: 60.0 mg/kg/injection, schedule: Q03HX024 (ip), vehicle: other
  T/C: 100 % of control
dose: 65.0 mg/kg/injection, schedule: Q01DX009 (sc), vehicle: other
  T/C: 158 % of control and 166 % of control
dose: 65.0 mg/kg/injection, schedule: Q01DX Z (sc), vehicle: saline
  T/C: 104 % of control
dose: 65.0 mg/kg/injection, schedule: Q08DX009 (sc), vehicle: none
  T/C: 150 % of control
dose: 100.0 mg/kg/injection, schedule: Q01DX009 (ip), vehicle: other
  T/C: 150 % of control
dose: 100.0 mg/kg/injection, schedule: Q01DX009 (sc), vehicle: other
  T/C: 155 % of control
dose: 100.0 mg/kg/injection, schedule: Q04DX003 (ip), vehicle: other
  T/C: 111 % of control
dose: 100.0 mg/kg/injection, schedule: Q04DX003 (sc), vehicle: other
  T/C: 107 % of control and 110 % of control and 111 % of control
dose: 108.0 mg/kg/injection, schedule: Q01DX009 (sc), vehicle: other
  T/C: 163 % of control and 166 % of control
dose: 108.0 mg/kg/injection, schedule: Q01DX Z (sc), vehicle: saline
  T/C: 104 % of control
dose: 108.0 mg/kg/injection, schedule: Q04DX003 (sc), vehicle: none
  T/C: 100 % of control
dose: 108.0 mg/kg/injection, schedule: Q04DX003 (sc), vehicle: other
  T/C: 103 % of control and 105 % of control
dose: 108.0 mg/kg/injection, schedule: Q08DX009 (sc), vehicle: none
  T/C: 155 % of control
dose: 180.0 mg/kg/injection, schedule: Q01DX009 (sc), vehicle: other
  T/C: 170 % of control and 177 % of control
dose: 180.0 mg/kg/injection, schedule: Q01DX Z (sc), vehicle: saline
  T/C: 104 % of control
dose: 180.0 mg/kg/injection, schedule: Q02DX005 (sc), vehicle: other
  T/C: 99 % of control
dose: 180.0 mg/kg/injection, schedule: Q04DX003 (sc), vehicle: none
  T/C: 100 % of control
dose: 180.0 mg/kg/injection, schedule: Q04DX003 (sc), vehicle: other
  T/C: 104 % of control and 105 % of control
dose: 180.0 mg/kg/injection, schedule: Q08DX009 (sc), vehicle: none
  T/C: 150 % of control
dose: 180.0 mg/kg/injection, schedule: Q11HX006 (sc), vehicle: water
  T/C: 122 % of control
dose: 200.0 mg/kg/injection, schedule: Q01DX009 (ip), vehicle: other
  T/C: 150 % of control
dose: 200.0 mg/kg/injection, schedule: Q01DX009 (sc), vehicle: other
  T/C: 150 % of control
dose: 200.0 mg/kg/injection, schedule: Q04DX003 (ip), vehicle: other
  T/C: 111 % of control
dose: 200.0 mg/kg/injection, schedule: Q04DX003 (sc), vehicle: other
  T/C: 98 % of control and 100 % of control and 116 % of control
dose: 300.0 mg/kg/injection, schedule: Q01DX009 (sc), vehicle: other
  T/C: 150 % of control
dose: 300.0 mg/kg/injection, schedule: Q01DX Z (sc), vehicle: saline
  T/C: 108 % of control
dose: 300.0 mg/kg/injection, schedule: Q02DX005 (sc), vehicle: other
  T/C: 108 % of control
dose: 300.0 mg/kg/injection, schedule: Q04DX003 (sc), vehicle: none
  T/C: 100 % of control
dose: 300.0 mg/kg/injection, schedule: Q04DX003 (sc), vehicle: other
  T/C: 105 % of control and 111 % of control
dose: 300.0 mg/kg/injection, schedule: Q04DX003 (sc), vehicle: water
  T/C: 111 % of control
dose: 300.0 mg/kg/injection, schedule: Q08DX009 (sc), vehicle: none
  T/C: 160 % of control
dose: 300.0 mg/kg/injection, schedule: Q11HX006 (sc), vehicle: water
  T/C: 122 % of control
dose: 400.0 mg/kg/injection, schedule: Q01DX009 (sc), vehicle: other
  T/C: 88 % of control
dose: 400.0 mg/kg/injection, schedule: Q04DX003 (ip), vehicle: other
  T/C: 111 % of control
dose: 400.0 mg/kg/injection, schedule: Q04DX003 (sc), vehicle: other
  T/C: 99 % of control and 100 % of control and 116 % of control
dose: 500.0 mg/kg/injection, schedule: Q02DX005 (sc), vehicle: other
  T/C: 100 % of control and 117 % of control
dose: 500.0 mg/kg/injection, schedule: Q04DX003 (sc), vehicle: none
  T/C: 100 % of control
dose: 500.0 mg/kg/injection, schedule: Q04DX003 (sc), vehicle: other
  T/C: 106 % of control and 111 % of control
dose: 833.0 mg/kg/injection, schedule: Q02DX005 (sc), vehicle: other
  T/C: 105 % of control and 60 % of control
dose: 1388.0 mg/kg/injection, schedule: Q02DX005 (sc), vehicle: other
  T/C: 120 % of control and 60 % of control

## O=C(NC(CO)C(=O)O)C(Cl)Cl (stereo not drawn)
dose: 138.8 mg/kg/injection, schedule: Q01DX Z (sc), vehicle: water
  T/C: 100 % of control
dose: 300.0 mg/kg/injection, schedule: Q01DX Z (sc), vehicle: water
  T/C: 100 % of control
dose: 500.0 mg/kg/injection, schedule: Q01DX Z (sc), vehicle: water
  T/C: 100 % of control

## C=C(C)c1ccc(/C=N/NC(N)=S)cc1
[1]
  T/C: 109 % of control
[2]
  T/C: 109 % of control
dose: 108.0 mg/kg/injection, schedule: Q01DX Z (sc), vehicle: methylcellulose (MC)
  T/C: 109 % of control
dose: 180.0 mg/kg/injection, schedule: Q01DX Z (sc), vehicle: methylcellulose (MC)
  T/C: 109 % of control
dose: 300.0 mg/kg/injection, schedule: Q01DX Z (sc), vehicle: methylcellulose (MC)
  T/C: 113 % of control
dose: 500.0 mg/kg/injection, schedule: Q01DX Z (sc), vehicle: methylcellulose (MC)
  T/C: 109 % of control

## COC12C(COC(N)=O)C3=C(C(=O)C(C)=C(N)C3=O)N1CC1C2N1C (stereo not drawn)
[3]
  T/C: 100 % of control
dose: 2.0 mg/kg/injection, schedule: Q01DX009 (ip), vehicle: saline
  T/C: 101 % of control
dose: 2.0 mg/kg/injection, schedule: Q01DX009 (sc), vehicle: saline
  T/C: 103 % of control and 106 % of control
[4]
  T/C: 100 % of control
dose: 4.0 mg/kg/injection, schedule: Q01DX009 (ip), vehicle: saline
  T/C: 106 % of control
dose: 4.0 mg/kg/injection, schedule: Q01DX009 (sc), vehicle: saline
  T/C: 104 % of control and 105 % of control
[5]
  T/C: 100 % of control
dose: 8.0 mg/kg/injection, schedule: Q01DX009 (ip), vehicle: saline
  T/C: 116 % of control
dose: 8.0 mg/kg/injection, schedule: Q01DX009 (sc), vehicle: saline
  T/C: 107 % of control and 112 % of control
[6]
  T/C: 100 % of control
dose: 16.0 mg/kg/injection, schedule: Q01DX009 (sc), vehicle: saline
  T/C: 116 % of control
dose: 32.0 mg/kg/injection, schedule: Q01DX009 (sc), vehicle: saline
  T/C: 92 % of control and 117 % of control

## C[n+]1c2ccccc2nc2c(N)cc(N)cc21
[3]
  T/C: 100 % of control
[4]
  T/C: 100 % of control
[5]
  T/C: 100 % of control
[6]
  T/C: 100 % of control
dose: 14.0 mg/kg/injection, schedule: Q01DX Z (sc), vehicle: saline
  T/C: 100 % of control
dose: 23.0 mg/kg/injection, schedule: Q01DX Z (sc), vehicle: methylcellulose (MC)
  T/C: 105 % of control
dose: 23.0 mg/kg/injection, schedule: Q01DX Z (sc), vehicle: saline
  T/C: 111 % of control
[1]
  T/C: 105 % of control
dose: 39.0 mg/kg/injection, schedule: Q01DX Z (sc), vehicle: saline
  T/C: 111 % of control
[2]
  T/C: 105 % of control

## CCN(CC)CCNC(=O)N(Cc1ccccc1)c1ccccc1
dose: 22.0 mg/kg/injection, schedule: Q01DX Z (sc), vehicle: methylcellulose (MC)
  T/C: 100 % of control
dose: 37.0 mg/kg/injection, schedule: Q01DX Z (sc), vehicle: methylcellulose (MC)
  T/C: 100 % of control
dose: 62.0 mg/kg/injection, schedule: Q01DX Z (sc), vehicle: methylcellulose (MC)
  T/C: 100 % of control
dose: 104.0 mg/kg/injection, schedule: Q01DX Z (sc), vehicle: methylcellulose (MC)
  T/C: 100 % of control
dose: 173.0 mg/kg/injection, schedule: Q01DX Z (sc), vehicle: methylcellulose (MC)
  T/C: 100 % of control
dose: 288.0 mg/kg/injection, schedule: Q01DX Z (sc), vehicle: methylcellulose (MC)
  T/C: 100 % of control
dose: 480.0 mg/kg/injection, schedule: Q01DX Z (sc), vehicle: methylcellulose (MC)
  T/C: 100 % of control
dose: 800.0 mg/kg/injection, schedule: Q01DX Z (sc), vehicle: methylcellulose (MC)
  T/C: 100 % of control

Reference: PubChem BioAssay AID250 (DTP/NCI, 2004)
